The record followed here is ChEMBL document CHEMBL1141751, “Latifolians A and B, novel JNK3 kinase inhibitors from the Papua New Guinean plant Gnetum latifolium” (J Nat Prod, 2005).

This assay concerns the target Mitogen-activated protein kinase 10 (Homo sapiens, UniProt P53779). Kind of assay: Inhibition of JNK3-induced transfer of [gamma33P]ATP to biotinylated ATF2 by scintillation proximity assay.

Mitogen-activated protein kinase 10, sequence (P53779 whole entry): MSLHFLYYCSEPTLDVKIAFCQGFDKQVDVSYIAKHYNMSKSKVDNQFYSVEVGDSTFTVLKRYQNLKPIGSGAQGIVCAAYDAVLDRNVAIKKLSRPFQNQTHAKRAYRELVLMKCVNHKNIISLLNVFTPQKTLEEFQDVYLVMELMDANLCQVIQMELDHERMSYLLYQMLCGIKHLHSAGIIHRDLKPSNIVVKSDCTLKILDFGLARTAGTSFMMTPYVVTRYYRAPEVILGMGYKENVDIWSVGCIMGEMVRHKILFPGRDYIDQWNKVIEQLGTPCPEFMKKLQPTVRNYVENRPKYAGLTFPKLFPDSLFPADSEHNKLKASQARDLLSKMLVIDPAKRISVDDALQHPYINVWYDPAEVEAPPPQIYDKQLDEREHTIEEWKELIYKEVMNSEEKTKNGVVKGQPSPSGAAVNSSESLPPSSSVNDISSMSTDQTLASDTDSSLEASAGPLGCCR

Broadly, the IC50 is the concentration at which inhibition is half-maximal. The low end stands for higher potency, the high end for lower potency. Consider `COc1cc2c(cc1O)C[C@@H]1c3cc(O)c(O)cc3C[C@H]3c4cc(O)c(O)cc4CC[N@@+]213` [LATIFOLIAN B], for which the concentration for half-maximal inhibition (IC50) is 10 µM.

`Oc1cc2c(cc1O)[C@H]1Cc3cc(O)c(O)cc3[N@+]13CCc1cc(O)c(O)cc1[C@@H]3C2` [LATIFOLIAN A] came in with an IC50 of 13 µM.
